Experimental findings from patent US10640495B2, “Heterocycle derivatives having TrkA inhibitory activity” (Shionogi & Co., Ltd., priority 2015, dated 2020) are described below.

Each structure is given as a SMILES string.

Sequence of human TrkA (P04629 440-796): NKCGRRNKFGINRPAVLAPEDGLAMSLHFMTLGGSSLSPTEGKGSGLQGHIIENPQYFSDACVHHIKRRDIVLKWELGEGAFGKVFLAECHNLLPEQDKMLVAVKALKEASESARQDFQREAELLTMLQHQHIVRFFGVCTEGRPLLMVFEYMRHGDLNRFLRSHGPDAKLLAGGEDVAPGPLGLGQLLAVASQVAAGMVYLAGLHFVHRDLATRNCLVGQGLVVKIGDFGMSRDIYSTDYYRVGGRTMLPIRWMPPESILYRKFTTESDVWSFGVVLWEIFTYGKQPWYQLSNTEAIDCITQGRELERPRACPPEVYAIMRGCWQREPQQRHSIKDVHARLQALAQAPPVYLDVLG

The target in one assay is human TrkA (Homo sapiens (Human), UniProt P04629). Put plainly: Human TrkA inhibition assay (Test Example 2). The note with it: Table 154, human TrkA inhibition; read-out: IC50. The assay is classed as biochemical. Put shortly:
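Mobility-shift readout of phosphorylated versus unphosphorylated fluorescent peptide gave conversion ratio, normalized to DMSO and no-enzyme wells; IC50 by logistic fit of 10- or 15-point 3-fold dilutions. Conditions: 1 nmol/L enzyme, 15 min compound preincubation, then 500 μmol/L ATP plus 1.5 μmol/L peptide, 120 min, 37 °C.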
As for `COCCN1C[C@@H](NC(=O)Nc2c(C)c(-c3cnc(F)nc3)nn2-c2ccccc2)[C@H](c2ccnc(F)c2)O1` (racemic) [Compound I-300], the IC50 is below 0.1 µM. On the same count and under the same terms, next, `COCCN1C[C@@H](NC(=O)Nc2c(C)c(-c3cc(C(N)=O)c(=O)n(C)n3)nn2-c2ccccc2)[C@H](c2ccnc(F)c2)O1` (racemic) [Compound I-301]: below 0.1 µM. On the same count and under the same terms, next, `Cc1c(-c2cnn(C)c2)nn(-c2ccccc2)c1NC(=O)N[C@@H]1CN(CC(F)(F)F)O[C@H]1c1ccc(F)c(F)c1` (racemic) [Compound I-304]: 0.1 to 1 µM; `Cc1c(-c2cnc3c(cnn3C)c2)nn(-c2ccccc2)c1NC(=O)N[C@@H]1CN(CC(F)(F)F)O[C@H]1c1ccc(F)c(F)c1` (racemic) [Compound I-305]: below 0.1 µM. The same measure, in the same setting: to `COCCN1C[C@@H](NC(=O)Nc2c(C)c(-c3cnc4c(c3)NCCO4)nn2-c2ccccc2)[C@H](c2ccnc(F)c2)O1` (racemic) [Compound I-306] belongs below 0.1 µM; to `COCCN1C[C@@H](NC(=O)Nc2c(C)c(-c3cnc(OC)c(C#N)c3)nn2-c2ccccc2)[C@H](c2ccnc(F)c2)O1` (racemic) [Compound I-307], below 0.1 µM; to `COCCN1C[C@@H](NC(=O)Nc2c(C)c(-c3cnc(OC)c(C(C)(C)O)c3)nn2-c2ccccc2)[C@H](c2ccnc(F)c2)O1` (racemic) [Compound I-308], below 0.1 µM. With `COCCN1C[C@@H](NC(=O)Nc2c(C)c(-c3cnc(C(N)=O)c(F)c3)nn2-c2ccccc2)[C@H](c2cnc(F)c(F)c2)O1` (racemic) [Compound I-311], the 50% inhibitory concentration (IC50) is below 0.1 µM.

In the case of `COCCN1C[C@@H](NC(=O)Nc2c(C)c(-c3cnc(C(N)=O)c(Cl)c3)nn2-c2ccccc2)[C@H](c2ccnc(F)c2)O1` (racemic) [Compound I-316], the IC50 is below 0.1 µM.

As to `COCCN1C[C@@H](NC(=O)Nc2c(C)c(-c3cnc(C(N)=O)c(OC)c3)nn2-c2ccccc2)[C@H](c2ccnc(F)c2)O1` (racemic) [Compound I-317], the 50% inhibitory concentration (IC50) was below 0.1 µM. Still for that read-out and setting: next, `COCCN1C[C@@H](NC(=O)Nc2c(C)c(-c3cnc(OC)c(C(=O)NOCC(C)(C)O)c3)nn2-c2ccccc2)[C@H](c2cnc(F)c(F)c2)O1` (racemic) [Compound I-318]: below 0.1 µM.

Still in this assay, the particulars now being: Table 155, human TrkA inhibition; read-out: IC50.
On to `COCCN1C[C@@H](NC(=O)Nc2c(C)c(-c3cnc4c(c3)ncn4C)nn2-c2ccccc2)[C@H](c2cc(F)nc(F)c2)O1` (racemic) [Compound I-320], for which the half-maximal inhibitory concentration (IC50) was below 0.1 µM. In the case of `COCCN1C[C@@H](NC(=O)Nc2c(C)c(-c3cnc(N4CC(O)C4)nc3)nn2-c2ccccc2)[C@H](c2cc(F)nc(F)c2)O1` (racemic) [Compound I-321], the IC50 was below 0.1 µM. Same read-out and setting: next, `COCCN1C[C@@H](NC(=O)Nc2c(C)c(-c3ccc(OC)nc3)nn2-c2ccccc2)[C@H](c2ccnc(F)c2)O1` (racemic) [Compound I-323]: below 0.1 µM; `COCCN1C[C@@H](NC(=O)Nc2c(C)c(-c3cnc(N4CCOCC4)nc3)nn2-c2ccccc2)[C@H](c2ccnc(F)c2)O1` (racemic) [Compound I-324]: below 0.1 µM; `COCCN1C[C@@H](NC(=O)Nc2c(C)c(-c3cnc4c(c3)N3C(=O)OCC3CO4)nn2-c2ccccc2)[C@H](c2ccnc(F)c2)O1` (mixture of isomers) [Compound I-326]: below 0.1 µM. On the same count and under the same terms, next, `COCCN1C[C@@H](NC(=O)Nc2c(C)c(-c3ccc(C)nc3)nn2-c2ccccc2)[C@H](c2ccnc(F)c2)O1` (racemic) [Compound I-327]: below 0.1 µM; `COCCN1C[C@@H](NC(=O)Nc2c(C)c(-c3cnc(OC(F)F)nc3)nn2-c2ccccc2)[C@H](c2ccnc(F)c2)O1` (racemic) [Compound I-328]: below 0.1 µM; `COCCN1C[C@@H](NC(=O)Nc2c(C)c(-c3cnc4nn(C(F)F)cc4c3)nn2-c2ccccc2)[C@H](c2ccnc(F)c2)O1` (racemic) [Compound I-331]: below 0.1 µM. Regarding `COCCN1C[C@@H](NC(=O)Nc2c(C)c(N3CC(c4ccc(F)cc4)C3)nn2-c2ccccc2)[C@H](c2ccnc(F)c2)O1` (racemic) [Compound I-335], the half-maximal inhibitory concentration (IC50) was below 0.1 µM. As for `COCCN1C[C@@H](NC(=O)Nc2c(C)c(N3CC(c4ccc(F)cc4)C3)nn2-c2ccccc2)[C@H](c2cnc(F)c(F)c2)O1` (racemic) [Compound I-336], the half-inhibitory concentration (IC50) was below 0.1 µM. Still for that read-out and setting: next, `COCCN1C[C@@H](NC(=O)Nc2c(C)c(-c3cnc4c(c3)OCC(=O)N4)nn2-c2ccccc2)[C@H](c2cnc(F)c(F)c2)O1` (racemic) [Compound I-337]: below 0.1 µM.

On to `COCCN1C[C@@H](NC(=O)Nc2c(C)c(-c3cnc4c(c3)N(C)C(CO)CO4)nn2-c2ccccc2)[C@H](c2ccnc(F)c2)O1` (mixture of isomers) [Compound I-338], for which the IC50 is below 0.1 µM. The same measure, in the same setting: to `COCCN1C[C@@H](NC(=O)Nc2c(C)c(-c3cnc(C(=O)NC4CC4)c(OC)c3)nn2-c2ccccc2)[C@H](c2ccnc(F)c2)O1` (racemic) [Compound I-339] belongs below 0.1 µM. Same read-out and setting: to `COCCN1C[C@@H](NC(=O)Nc2c(C)c(-c3cnc4c(c3)N(C)CCO4)nn2-c2ccccc2)[C@H](c2ccnc(F)c2)O1` (racemic) [Compound I-340] belongs below 0.1 µM. The same measure, in the same setting: to `COCCN1C[C@@H](NC(=O)Nc2c(C)c(-c3cnc4c(c3)N(C(C)=O)CCO4)nn2-c2ccccc2)[C@H](c2ccnc(F)c2)O1` (racemic) [Compound I-341] belongs below 0.1 µM; to `COCCN1C[C@@H](NC(=O)Nc2c(C)c(-c3cnc4c(c3)CN(C)C4=O)nn2-c2ccccc2)[C@H](c2ccnc(F)c2)O1` (racemic) [Compound I-343], below 0.1 µM; to `COCCN1C[C@@H](NC(=O)Nc2c(C)c(-n3cnc(C)c3)nn2-c2ccccc2)[C@H](c2ccnc(F)c2)O1` (racemic) [Compound I-346], below 0.1 µM. For `COCCN1C[C@@H](NC(=O)Nc2c(C)c(-c3ccc4nc(CO)cn4c3)nn2-c2ccccc2)[C@H](c2ccnc(F)c2)O1` (racemic) [Compound I-347], the IC50 is below 0.1 µM. Same read-out and setting: next, `COCCN1C[C@@H](NC(=O)Nc2c(C)c(-c3cc(C)c4nccn4c3)nn2-c2ccccc2)[C@H](c2ccnc(F)c2)O1` (racemic) [Compound I-348]: below 0.1 µM; `COCCN1C[C@@H](NC(=O)Nc2c(C)c(-c3ccc(C)nc3F)nn2-c2ccccc2)[C@H](c2ccnc(F)c2)O1` (racemic) [Compound I-350]: below 0.1 µM; `COCCN1C[C@@H](NC(=O)Nc2c(C)c(-c3cnc4c(c3)CCN4)nn2-c2ccccc2)[C@H](c2ccnc(F)c2)O1` (racemic) [Compound I-351]: below 0.1 µM. Still for that read-out and setting: to `COCCN1C[C@@H](NC(=O)Nc2c(C)c(-c3cnc(OC)cn3)nn2-c2ccccc2)[C@H](c2ccnc(F)c2)O1` (racemic) [Compound I-352] belongs below 0.1 µM. Regarding `CCC(O)(CC)c1cc(-c2nn(-c3ccccc3)c(NC(=O)N[C@@H]3CN(CCOC)O[C@H]3c3ccnc(F)c3)c2C)cnc1OC` (racemic) [Compound I-354], the IC50 is below 0.1 µM. On the same count and under the same terms, next, `COCCN1C[C@@H](NC(=O)Nc2c(C)c(-c3cnc(OC)c(C4(O)CC4)c3)nn2-c2ccccc2)[C@H](c2ccnc(F)c2)O1` (racemic) [Compound I-355]: below 0.1 µM; `COCCN1C[C@@H](NC(=O)Nc2c(C)c(-c3cnc4c(c3)NC(=O)CN4)nn2-c2ccccc2)[C@H](c2ccnc(F)c2)O1` (racemic) [Compound I-357]: below 0.1 µM. Still for that read-out and setting: to `COCCN1C[C@@H](NC(=O)Nc2c(C)c(-c3cnc(C4(O)COC4)nc3)nn2-c2ccccc2)[C@H](c2ccnc(F)c2)O1` (racemic) [Compound I-360] belongs below 0.1 µM. Turning to `COCCN1C[C@@H](NC(=O)Nc2c(C)c(-c3ccc4c(c3)NC(=O)CO4)nn2-c2ccccc2)[C@H](c2ccnc(F)c2)O1` (racemic) [Compound I-364], the IC50 was below 0.1 µM. On the same count and under the same terms, to `COCCN1C[C@@H](NC(=O)Nc2c(C)c(-c3ccc4c(c3)N(C)C(=O)CO4)nn2-c2ccccc2)[C@H](c2ccnc(F)c2)O1` (racemic) [Compound I-365] belongs below 0.1 µM. The same measure, in the same setting: next, `COCCN1C[C@@H](NC(=O)Nc2c(C)c(-c3cnc(OC)c(OC)c3)nn2-c2ccccc2)[C@H](c2ccnc(F)c2)O1` (racemic) [Compound I-366]: below 0.1 µM; `COCCN1C[C@@H](NC(=O)Nc2c(C)c(-c3cnc(OC)c(F)c3)nn2-c2ccccc2)[C@H](c2ccnc(F)c2)O1` (racemic) [Compound I-367]: below 0.1 µM; `COCCN1C[C@@H](NC(=O)Nc2c(C)c(-c3cnc(-c4cnn(C)c4)nc3)nn2-c2ccccc2)[C@H](c2ccnc(F)c2)O1` (racemic) [Compound I-368]: below 0.1 µM.

The same assay, now with this note: human TrkA 1 nmol/L, ATP 500 μmol/L, 120 min at 37° C.; read-out: IC50 values (TrkA phosphorylation inhibition).
For the molecule `COCCN1C[C@@H](NC(=O)Nc2c(C)c(-c3cnc4[nH]ncc4c3)nn2-c2ccccc2)[C@H](c2ccnc(F)c2)O1` (racemic) [Compound I-299], the IC50 was 0.0021 µM. The same measure, in the same setting: to `CNC(=O)c1cc(-c2nn(-c3ccccc3)c(NC(=O)N[C@@H]3CN(CCOC)O[C@H]3c3ccnc(F)c3)c2C)nn(C)c1=O` (racemic) [Compound I-302] belongs 0.0082 µM.

Take `COCCN1C[C@@H](NC(=O)Nc2c(C)c(-c3cnc4c(c3)CC(=O)N4C)nn2-c2ccccc2)[C@H](c2cnc(F)c(F)c2)O1` (racemic) [Compound I-303]: the 50% inhibitory concentration (IC50) was found to be 0.0015 µM. Consider `COCCN1C[C@@H](NC(=O)Nc2c(C)c(-c3ccc4nc(C(N)=O)cn4c3)nn2-c2ccccc2)[C@H](c2cnc(F)c(F)c2)O1` (racemic) [Compound I-309], for which the IC50 came to 0.002 µM.

As for `CNC(=O)c1ncc(-c2nn(-c3ccccc3)c(NC(=O)N[C@@H]3CN(CCOC)O[C@H]3c3cnc(F)c(F)c3)c2C)cc1F` (racemic) [Compound I-313], the IC50 came out at 0.0036 µM.

Consider `COCCN1C[C@@H](NC(=O)Nc2c(C)c(-c3cnc4c(c3)NCC(=O)N4)nn2-c2ccccc2)[C@H](c2ccnc(F)c2)O1` (racemic) [Compound I-356], for which the IC50 was determined as 0.0015 µM.
